Series [1] relates to MCF-7 (breast adenocarcinoma). Description: WST-1 cytotoxicity assay, MCF-7. Type of series: cell-based. Particulars: Homo sapiens, MCF7; c = 10 μM, 48 h, percent of proliferation of untreated control cells; read-out: Cell proliferation, MCF-7. An excerpt: (§1) Selected human tumor and non-tumor cell lines {Jurkat (acute T cell leukemia), MOLT-4 (acute lymphoblastic leukemia), A549 (lung carcinoma), HT-29 (colorectal adenocarcinoma), PANC-1 (pancreas epithelioid carcinoma), A2780 (ovarian carcinoma), HeLa (cervix adenocarcinoma), MCF-7 (breast adenocarcinoma), SAOS-2 (osteosarcoma) and MRC-5 (normal lung fibroblasts)} were purchased from either ATCC (Manassas, VA, USA) or Sigma-Aldrich (St. Louis, MO, USA) and cultured according to the provider’s culture method guidelines. […] Cells in the maximum range of either 10 passages for primary cell line (MRC-5), or in the maximum range of 20 passages for cancer cell lines (Jurkat, MOLT-4, A549, HT-29, PANC-1, A2780, HeLa, MCF-7 and SAOS-2) and in an exponential growth phase were used for this study.
(§2) The WST-1 (Roche, Mannheim, Germany) reagent was used to determine the cytostatic effect of the test compounds. WST-1 is designed for the spectrophotometric quantification of cell proliferation, growth, viability and chemosensitivity in cell populations using a 96-well-plate format (Sigma, St. Louis, MO, USA). The principle of WST-1 is based on photometric detection of the reduction of tetrazolium salt to a colored formazan product. The cells were seeded at a previously established optimal density (30,000 Jurkat, 25,000 MOLT-4, 500 A549, 1500 HT-29, 2000 PANC-1, 5000 A2780, 500 HeLa, 1500 MCF-7, 2000 SAOS-2 and 2000 MRC-5 cells/well) in 100 µL of culture medium, and adherent cells were allowed to reattach overnight. Thereafter, the cells were treated with 100 µL of either corresponding alkaloids or doxorubicin stock solutions to obtain the desired concentrations and incubated in 5% CO2 at 37 °C. WST-1 reagent diluted 4-fold with PBS (50 µL) was added 48 h after treatment. Absorbance was measured after 3 h incubation with WST-1 at 440 nm. The measurements were performed in a Tecan Infinite M200 spectrometer (Tecan Group, Männedorf, Switzerland). All experiments were performed at least three times with triplicate measurements at each drug concentration per experiment. The viability was quantified as described previously according to the following formula: (%) viability = (Asample − Ablank)/(Acontrol − Ablank) × 100, where A is the absorbance of the employed WST-1 formazan measured at 440 nm. The viability of the treated cells was normalized to the viability of cells treated with 0.1% DMSO (Sigma-Aldrich) as a vehicle control.
A general note: Tetrazolium dyes change colour on reduction, which living cells bring about.

Series [2] deals with HT-29 (colorectal adenocarcinoma). Description: WST-1 cytotoxicity assay, HT-29. Type of series: cell-based. Particulars: Homo sapiens, c = 10 μM, 48 h, percent of proliferation of untreated control cells, read-out: Cell proliferation, HT-29.
Text: as §1, §2

The test system of series [3] is A2780 (ovarian carcinoma). In words: WST-1 cytotoxicity assay, A2780. Type of series: cell-based. Particulars: Homo sapiens, c = 10 μM, 48 h, percent of proliferation of untreated control cells, read-out: Cell proliferation, A2780.
Text: as §1, §2

In series [4] the test system is HeLa (cervix adenocarcinoma). Description: WST-1 cytotoxicity assay, HeLa. The format is cell-based. Particulars: Homo sapiens, c = 10 μM, 48 h, percent of proliferation of untreated control cells, read-out: Cell proliferation, HeLa.
Text: as §1, §2

Series [5] deals with Jurkat (acute T cell leukemia). In words: WST-1 cytotoxicity assay, Jurkat. The format is cell-based. Particulars: Homo sapiens, c = 10 μM, 48 h, percent of proliferation of untreated control cells.
Text: as §1, §2

Series [6] relates to SAOS-2 (osteosarcoma). Description: WST-1 cytotoxicity assay, SAOS-2. The format is cell-based. Particulars: Homo sapiens, c = 10 μM, 48 h, percent of proliferation of untreated control cells, read-out: Cell proliferation, SAOS-2.
Text: as §1, §2

Series [7] addresses hAChE (Homo sapiens, UniProt P22303). Description: biochemical. The format is biochemical. Particulars: for IC50: mean ± SEM of three independent measurements, each in triplicate; for SI for hAChE: selectivity index, ratio hBuChE IC50/hAChE IC50. On the procedure: (§3) The hAChE and hBuChE activities were determined using a modified method of Ellman with acetylthiocholine iodide (ATChI) and butyrylthiocholine iodide (BuTChI) as substrates, respectively.

Series [8] deals with hBuChE (Homo sapiens, UniProt P06276). Description: biochemical. The format is biochemical. Particulars: mean ± SEM of three independent measurements, each in triplicate; read-out: hBuChE IC50. Here is the method: as §3
Series [9] relates to MOLT-4 (acute lymphoblastic leukemia). Description: WST-1 cytotoxicity assay, MOLT-4. The format is cell-based. Particulars: Homo sapiens, c = 10 μM, 48 h, percent of proliferation of untreated control cells, read-out: Cell proliferation, MOLT-4.
Text: as §1, §2

For series [10], the system named is MRC-5 (normal lung fibroblasts). Description: WST-1 cytotoxicity assay, MRC-5. Particulars: Homo sapiens, MRC5; c = 10 μM, 48 h, percent of proliferation of untreated control cells; read-out: Cell proliferation, MRC-5. Type of series: cell-based.
Text: as §1, §2

Series [11] has as its system PANC-1 (pancreas epithelioid carcinoma). Description: WST-1 cytotoxicity assay, PANC-1. Particulars: Homo sapiens, c = 10 μM, 48 h, percent of proliferation of untreated control cells, read-out: Cell proliferation, PANC-1. Type of series: cell-based.
Text: as §1, §2

Series [12] deals with A549 (lung carcinoma). In words: WST-1 cytotoxicity assay, A549. Particulars: Homo sapiens, c = 10 μM, 48 h, percent of proliferation of untreated control cells, read-out: Cell proliferation, A549. The format is cell-based.
Text: as §1, §2

The nature of series [13]: in vitro. Particulars: pig, PAMPA, PAMPA-BBB Permeability (Pe). On the procedure: The PAMPA assay was performed as previously described.
(The PAMPA barrier holds no transporters, so it reflects passive diffusion.)

Structures are written as SMILES.

hBuChE, sequence (P06276 29-602): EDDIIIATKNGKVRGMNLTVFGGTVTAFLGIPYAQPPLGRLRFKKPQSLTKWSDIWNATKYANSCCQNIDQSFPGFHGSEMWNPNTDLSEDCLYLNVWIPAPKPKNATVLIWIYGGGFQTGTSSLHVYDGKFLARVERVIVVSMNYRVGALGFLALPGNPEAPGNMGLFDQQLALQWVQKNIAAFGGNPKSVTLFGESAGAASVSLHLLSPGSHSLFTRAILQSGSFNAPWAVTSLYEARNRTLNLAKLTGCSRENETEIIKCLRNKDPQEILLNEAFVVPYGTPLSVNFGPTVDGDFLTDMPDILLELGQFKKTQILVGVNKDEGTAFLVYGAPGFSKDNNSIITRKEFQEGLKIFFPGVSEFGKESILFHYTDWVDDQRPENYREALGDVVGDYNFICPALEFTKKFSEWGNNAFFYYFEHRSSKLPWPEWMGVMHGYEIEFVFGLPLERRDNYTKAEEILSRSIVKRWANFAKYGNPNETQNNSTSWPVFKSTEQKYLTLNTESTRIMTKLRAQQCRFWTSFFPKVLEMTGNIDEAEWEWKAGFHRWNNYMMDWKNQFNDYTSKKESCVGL
hAChE, sequence (P22303 32-614): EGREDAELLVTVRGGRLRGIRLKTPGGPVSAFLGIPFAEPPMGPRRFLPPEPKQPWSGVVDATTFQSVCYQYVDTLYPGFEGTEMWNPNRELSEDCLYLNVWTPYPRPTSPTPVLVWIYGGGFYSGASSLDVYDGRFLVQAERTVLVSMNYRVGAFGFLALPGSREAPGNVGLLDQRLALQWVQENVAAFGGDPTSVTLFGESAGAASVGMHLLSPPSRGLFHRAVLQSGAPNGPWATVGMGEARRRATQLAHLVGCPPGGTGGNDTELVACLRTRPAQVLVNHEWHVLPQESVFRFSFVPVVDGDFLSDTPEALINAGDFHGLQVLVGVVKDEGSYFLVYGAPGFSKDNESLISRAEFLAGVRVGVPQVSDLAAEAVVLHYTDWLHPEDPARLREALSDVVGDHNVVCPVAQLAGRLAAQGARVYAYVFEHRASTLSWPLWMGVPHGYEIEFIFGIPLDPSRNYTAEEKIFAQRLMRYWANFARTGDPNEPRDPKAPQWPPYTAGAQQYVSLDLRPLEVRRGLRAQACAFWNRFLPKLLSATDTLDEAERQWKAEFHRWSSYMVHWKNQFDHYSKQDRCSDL

For `CCCCCC(=O)OC1CN2Cc3cc4c(cc3C13C=CC(OC)CC23)OCO4` (centres unmarked) [Compound 1e, 11-O-Hexanoylhaemanthamine], the activity at 10 µM in [1] stood at 95 ± 4%; in series [2], 100 ± 3%; in series [3], 106 ± 5%; in series [4] it was 98 ± 3%; in series [5], 100 ± 7%; in series [6], 96 ± 8%. Also, the activity at 10 µM was determined as 96 ± 4% in series [10], 96 ± 4% in series [11] and 105 ± 9% in series [12]. Besides, the IC50 in series [7] was more than 500 µM; in series [8], 273 ± 18 µM. For the same molecule, the “SI for hAChE” value in series [7] is listed as less than 0.5. For the same molecule, the viability at 10 µM in series [9] was found to be 97 ± 3%.
In the case of `COc1cccc2c1C(=O)c1c(O)c3c(c(O)c1C2=O)C[C@@](O)(C(=O)CO)C[C@@H]3O[C@H]1C[C@H](N)[C@H](O)[C@H](C)O1` [DOX, Doxorubicin, reference compound], the activity at 10 µM in series [1] came to 41 ± 7%; in series [2], 77 ± 12%; in [3] it was 5 ± 1%; in series [4], 7 ± 10%; in series [5] it was 0%; in series [6], 73 ± 8%. In addition, the activity at 10 µM in series [10] stood at 40 ± 4%; in [11], 59 ± 9%; in [12], 66 ± 16%. Further, the viability at 10 µM in series [9] amounted to 0%.
On to `CCCC(=O)OC1CN2Cc3cc4c(cc3C13C=CC(OC)CC23)OCO4` (centres unmarked) [Compound 1f, 11-O-Butanoylhaemanthamine], for which the activity at 10 µM in series [1] came out at 96 ± 13%; in [2], 101 ± 3%; in series [3], 104 ± 8%; in [4] it was 88 ± 3%; in [5], 90 ± 12%; in series [6] it was 104 ± 7%. The activity at 10 µM was 87 ± 14% in [10], 99 ± 6% in series [11] and 106 ± 12% in series [12]. Moreover, the values for the half-inhibitory concentration (IC50) in series [7] and in [8] were more than 500 µM and 140 ± 21 µM, respectively. The “SI for hAChE” value in series [7] is recorded as less than 0.3. The viability at 10 µM in series [9] stood at 101 ± 18%.
Regarding `CCC(=O)OC1CN2Cc3cc4c(cc3C13C=CC(OC)CC23)OCO4` (centres unmarked) [Compound 1b, 11-O-Propionylhaemanthamine], the activity at 10 µM in series [1] stood at 85 ± 7%; in [2], 79 ± 15%; in [3], 104 ± 3%; in [4] it was 69 ± 11%; in series [5] it was 104 ± 3%; in series [6], 96 ± 16%. For the same molecule, the figures for the activity at 10 µM in [10], in [11] and in series [12] were 102 ± 13%, 70 ± 13% and 84 ± 3%, respectively. Further, the IC50 is more than 500 µM in series [7] and 437 ± 38 µM in series [8]. Also, the “SI for hAChE” value in series [7] was less than 0.9. For the same molecule, the viability at 10 µM in series [9] is 97 ± 8%.
On to `CCCCC(=O)OC1CN2Cc3cc4c(cc3C13C=CC(OC)CC23)OCO4` (centres unmarked) [Compound 1d, 11-O-Pentanoylhaemanthamine], for which the activity at 10 µM stood at 93 ± 5% in series [1]; 94 ± 4% in series [2]; 99 ± 2% in series [3]; 93 ± 6% in series [4]; 92 ± 1% in [5]; 88 ± 6% in series [6]. Also, the activity at 10 µM in series [10] was 89 ± 3%; in [11] it was 88 ± 3%; in series [12] it was 99 ± 7%. Besides, the IC50 in series [7] and in [8] was more than 500 µM each time. In series [9], the viability at 10 µM worked out at 96 ± 1%.
With `COC1C=CC23c4cc5c(cc4CN(CC2OC(=O)c2cccc(Br)c2)C3C1)OCO5` (centres unmarked) [Compound 1i, 11-O-(3-Bromobenzoyl)haemanthamine], the activity at 10 µM stood at 105 ± 4% in series [1]; 120 ± 4% in [2]; 162 ± 9% in series [3]; 93 ± 5% in [4]; 133 ± 10% in series [5]; 97 ± 10% in series [6]. Besides, the activity at 10 µM worked out at 105 ± 3% in series [10], 108 ± 2% in series [11] and 122 ± 5% in series [12]. Besides, the IC50 in series [7] came out at 112 ± 21 µM; in [8], 129 ± 25 µM. Besides, the “SI for hAChE” value in [7] is recorded as 1.1. Further, the viability at 10 µM in series [9] turned out to be 115 ± 15%.
For the molecule `COC1C=CC23c4cc5c(cc4CN(CC2OC(=O)c2cccc(Cl)c2)C3C1)OCO5` (centres unmarked) [Compound 1h, 11-O-(3-Chlorobenzoyl)haemanthamine], the values for the IC50 in series [7] and in [8] were 85.1 ± 6.4 µM and 80.2 ± 10.2 µM, respectively. Moreover, the “SI for hAChE” value in series [7] stood at 0.9.
Molecule `CN(C)CCCN1c2ccccc2Sc2ccccc21` [Promazine, reference compound] came in with a Papp in [13] of 86 nm/s.
`COc1cccc(C(=O)OC2CN3Cc4cc5c(cc4C24C=CC(OC)CC34)OCO5)c1` (centres unmarked) [Compound 1k, 11-O-(3-Methoxybenzoyl)haemanthamine]: the activity at 10 µM was found to be 100 ± 2% in series [1]; 93 ± 3% in [2]; 108 ± 7% in series [3]; 84 ± 12% in series [4]; 83 ± 1% in series [5]; 89 ± 15% in series [6]. Further, the activity at 10 µM amounted to 92 ± 1% in [10], 88 ± 5% in [11] and 102 ± 5% in series [12]. Also, the IC50 in series [7] is 180 ± 17 µM; in series [8], 75.5 ± 12.5 µM. For the same molecule, in series [7], the “SI for hAChE” value came out at 0.4. Further, the viability at 10 µM in series [9] is 94 ± 18%.
For the molecule `COC1C=CC23c4cc5c(cc4CN(CC2OC(=O)C(C)C)C3C1)OCO5` (centres unmarked) [Compound 1c, 11-O-Isobutanoylhaemanthamine], the activity at 10 µM in [1] was determined as 103 ± 7%; in series [2], 82 ± 17%; in series [3], 123 ± 9%; in series [4] it was 74 ± 8%; in series [5], 110 ± 3%; in series [6], 85 ± 15%. Further, the activity at 10 µM amounted to 95 ± 7% in series [10], 85 ± 13% in series [11] and 84 ± 3% in series [12]. For the same molecule, the IC50 in series [7] is more than 500 µM; in [8] it was 203 ± 8 µM. The “SI for hAChE” value in series [7] is reported as less than 0.4. The viability at 10 µM in series [9] was determined as 99 ± 8%.
As to `COC1C=CC23c4cc5c(cc4CN(CC2OC(C)=O)C3C1)OCO5` (centres unmarked) [Compound 1a, 11-O-Acetylhaemanthamine], the activity at 10 µM in series [1] is 97 ± 19%; in series [2], 97 ± 10%; in series [3] it was 107 ± 17%; in [4] it was 83 ± 6%; in series [5] it was 100 ± 13%; in [6] it was 88 ± 6%. For the same molecule, the results for the activity at 10 µM in series [10], in [11] and in series [12] were 113 ± 12%, 114 ± 4% and 95 ± 9%, respectively. The IC50 in series [7] and in series [8] was more than 500 µM in each case. Besides, the viability at 10 µM in series [9] was 106 ± 9%.

As a reminder, the IC50 is the concentration at which inhibition is half-maximal. Usually Papp stands for the rate of passage across a membrane or cell layer, normalised by area and donor concentration. A high value points to ready permeation.

The record behind these values is PMC6480460, “Derivatives of the β-Crinane Amaryllidaceae Alkaloid Haemanthamine as Multi-Target Directed Ligands for Alzheimer’s Disease” (Molecules, 2019).
